How the values were obtained:
[1] = target: T1, Fibroblast growth factor receptor 1 (Homo sapiens, UniProt P11362); assay: Inhibition of recombinant His6-tagged FGFR1 (unknown origin) expressed in Escherichia coli BL21(DE3)-RILP using peptidic substrate by ELISA
[2] = target: T2, Fibroblast growth factor receptor 2 (Homo sapiens, UniProt P21802); assay: Inhibition of recombinant His6-tagged FGFR2 (unknown origin) expressed in Escherichia coli BL21(DE3)-RILP using peptidic substrate by ELISA
[3] = target: Fibroblast growth factor receptor 3 (Homo sapiens, UniProt P22607); assay: Inhibition of FGFR3 (unknown origin)
[4] = target: T1, Fibroblast growth factor receptor 1; assay: Inhibition of FGFR1 (unknown origin)
[5] = target: Fibroblast growth factor receptor 2 (Homo sapiens, UniProt P21802, V564M); assay: Inhibition of FGFR2 V564M mutant (unknown origin)
[6] = target: T3, Fibroblast growth factor receptor 4 (Homo sapiens, UniProt P22455); assay: Inhibition of FGFR4 (unknown origin)
[7] = target: T2, Fibroblast growth factor receptor 2; assay: Inhibition of FGFR2 (unknown origin)
SNU-16 = assay: cells; conditions: Homo sapiens, SNU-16, 72 h
[8] = target: Fibroblast growth factor receptor 1 (Mus musculus, UniProt P16092); assay: Inhibition of FGF induced FGFR1 autophosphorylation in mouse NIH 3T3 cells preincubated for 5 mins followed by FGF-stimulation for 5 mins in presence of [gamma-32P]ATP by SDS-PAGE based autoradiography; type: cell-based
[9] = target: T1, Fibroblast growth factor receptor 1; assay: Inhibition of FGFR1 kinase domain (unknown origin)
[10] = target: Epidermal growth factor receptor (Homo sapiens, UniProt P00533, L858R); assay: Inhibition of EGFR L858R mutant (unknown origin)
[11] = target: T3, Fibroblast growth factor receptor 4; assay: Inhibition of human N-terminal GST-tagged FGFR4 cytoplasmic domain (460 to 802 end residues) expressed in baculovirus expression system using CSKtide as substrate after 90 mins

T3 sequence (P22455 whole entry): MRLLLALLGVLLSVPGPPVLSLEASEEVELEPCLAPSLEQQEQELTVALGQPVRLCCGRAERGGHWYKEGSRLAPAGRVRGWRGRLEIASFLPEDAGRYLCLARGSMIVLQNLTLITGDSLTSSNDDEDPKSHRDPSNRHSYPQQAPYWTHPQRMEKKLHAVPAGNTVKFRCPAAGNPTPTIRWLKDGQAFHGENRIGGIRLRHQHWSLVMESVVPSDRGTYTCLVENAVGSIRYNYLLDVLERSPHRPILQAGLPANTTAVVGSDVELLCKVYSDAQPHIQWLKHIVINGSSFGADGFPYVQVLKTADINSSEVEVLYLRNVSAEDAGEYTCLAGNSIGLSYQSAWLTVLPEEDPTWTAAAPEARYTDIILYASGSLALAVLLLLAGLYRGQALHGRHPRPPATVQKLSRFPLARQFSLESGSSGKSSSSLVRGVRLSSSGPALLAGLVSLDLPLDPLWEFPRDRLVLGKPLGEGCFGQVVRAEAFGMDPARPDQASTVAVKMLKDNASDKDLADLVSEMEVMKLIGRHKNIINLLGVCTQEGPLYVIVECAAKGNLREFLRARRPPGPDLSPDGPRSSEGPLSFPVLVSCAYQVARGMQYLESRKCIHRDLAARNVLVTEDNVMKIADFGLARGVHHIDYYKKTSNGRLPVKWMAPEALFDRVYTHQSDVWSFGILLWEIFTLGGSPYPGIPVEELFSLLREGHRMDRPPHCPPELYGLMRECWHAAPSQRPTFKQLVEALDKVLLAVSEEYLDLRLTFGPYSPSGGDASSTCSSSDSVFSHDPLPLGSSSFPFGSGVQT
T2 sequence (P21802 whole entry): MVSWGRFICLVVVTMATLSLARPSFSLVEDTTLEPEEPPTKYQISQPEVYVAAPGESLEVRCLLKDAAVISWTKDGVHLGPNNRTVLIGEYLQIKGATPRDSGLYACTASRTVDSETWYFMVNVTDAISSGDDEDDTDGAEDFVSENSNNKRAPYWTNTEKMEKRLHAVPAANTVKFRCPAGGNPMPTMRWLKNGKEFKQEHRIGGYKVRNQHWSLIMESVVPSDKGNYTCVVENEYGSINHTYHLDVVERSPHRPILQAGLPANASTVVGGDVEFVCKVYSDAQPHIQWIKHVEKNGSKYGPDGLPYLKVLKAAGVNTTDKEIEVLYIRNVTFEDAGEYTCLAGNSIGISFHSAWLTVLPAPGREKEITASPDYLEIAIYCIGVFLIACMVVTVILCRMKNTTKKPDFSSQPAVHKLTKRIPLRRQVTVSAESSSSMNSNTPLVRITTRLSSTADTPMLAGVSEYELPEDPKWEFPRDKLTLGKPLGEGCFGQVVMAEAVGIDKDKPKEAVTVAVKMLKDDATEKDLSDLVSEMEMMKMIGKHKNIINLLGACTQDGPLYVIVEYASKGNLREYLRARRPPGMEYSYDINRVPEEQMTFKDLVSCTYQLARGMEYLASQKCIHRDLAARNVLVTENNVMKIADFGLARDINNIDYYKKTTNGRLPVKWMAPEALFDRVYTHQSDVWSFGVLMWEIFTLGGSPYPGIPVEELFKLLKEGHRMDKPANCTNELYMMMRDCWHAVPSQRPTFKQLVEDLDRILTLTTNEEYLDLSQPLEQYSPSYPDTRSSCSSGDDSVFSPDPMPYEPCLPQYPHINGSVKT
T1 sequence (P11362 whole entry): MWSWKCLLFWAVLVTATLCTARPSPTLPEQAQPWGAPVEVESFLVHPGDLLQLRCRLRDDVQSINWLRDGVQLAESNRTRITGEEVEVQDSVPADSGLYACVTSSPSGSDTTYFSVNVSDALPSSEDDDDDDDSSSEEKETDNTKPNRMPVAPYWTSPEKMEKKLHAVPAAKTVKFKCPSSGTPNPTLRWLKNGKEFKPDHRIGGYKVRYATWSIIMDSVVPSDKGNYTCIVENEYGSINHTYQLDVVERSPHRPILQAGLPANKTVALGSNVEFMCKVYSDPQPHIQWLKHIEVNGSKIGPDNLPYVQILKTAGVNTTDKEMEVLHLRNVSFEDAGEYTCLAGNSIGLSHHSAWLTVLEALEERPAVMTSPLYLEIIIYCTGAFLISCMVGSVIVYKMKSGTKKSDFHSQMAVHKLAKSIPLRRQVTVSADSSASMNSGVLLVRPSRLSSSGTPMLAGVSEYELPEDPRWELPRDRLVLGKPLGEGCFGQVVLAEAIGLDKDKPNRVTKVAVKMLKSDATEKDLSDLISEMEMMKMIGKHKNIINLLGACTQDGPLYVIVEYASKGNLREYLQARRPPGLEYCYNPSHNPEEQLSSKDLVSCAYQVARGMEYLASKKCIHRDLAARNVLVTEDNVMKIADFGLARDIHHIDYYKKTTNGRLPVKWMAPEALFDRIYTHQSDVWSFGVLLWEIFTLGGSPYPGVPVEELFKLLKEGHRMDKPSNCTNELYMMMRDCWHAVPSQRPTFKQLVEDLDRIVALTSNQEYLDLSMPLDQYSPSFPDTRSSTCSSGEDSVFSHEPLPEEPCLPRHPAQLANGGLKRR
Sequence of Fibroblast growth factor receptor 1 (Mus musculus, UniProt P16092) (P16092 whole entry, the tested form may be a part): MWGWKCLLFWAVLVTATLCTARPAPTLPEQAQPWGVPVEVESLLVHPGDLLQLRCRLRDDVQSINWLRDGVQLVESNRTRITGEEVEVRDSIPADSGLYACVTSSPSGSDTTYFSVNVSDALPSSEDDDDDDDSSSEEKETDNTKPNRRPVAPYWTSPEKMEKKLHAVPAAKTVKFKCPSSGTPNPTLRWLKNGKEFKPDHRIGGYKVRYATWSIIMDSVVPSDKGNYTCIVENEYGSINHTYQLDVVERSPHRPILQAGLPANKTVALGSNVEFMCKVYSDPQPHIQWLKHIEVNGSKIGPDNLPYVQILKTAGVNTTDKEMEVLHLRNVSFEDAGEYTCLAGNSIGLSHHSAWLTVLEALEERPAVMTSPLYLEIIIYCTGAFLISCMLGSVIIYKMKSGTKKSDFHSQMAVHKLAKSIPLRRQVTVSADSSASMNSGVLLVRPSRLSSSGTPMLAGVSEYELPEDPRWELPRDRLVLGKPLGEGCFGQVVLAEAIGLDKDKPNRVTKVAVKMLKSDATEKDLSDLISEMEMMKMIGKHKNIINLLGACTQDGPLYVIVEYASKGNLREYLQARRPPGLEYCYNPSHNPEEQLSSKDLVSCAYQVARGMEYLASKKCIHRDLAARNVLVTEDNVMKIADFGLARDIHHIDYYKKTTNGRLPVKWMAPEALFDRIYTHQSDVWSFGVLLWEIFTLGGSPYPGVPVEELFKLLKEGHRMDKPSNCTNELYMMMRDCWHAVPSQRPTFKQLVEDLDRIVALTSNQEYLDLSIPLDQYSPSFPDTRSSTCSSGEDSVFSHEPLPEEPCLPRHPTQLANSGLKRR
Sequence of Fibroblast growth factor receptor 3 (P22607 whole entry): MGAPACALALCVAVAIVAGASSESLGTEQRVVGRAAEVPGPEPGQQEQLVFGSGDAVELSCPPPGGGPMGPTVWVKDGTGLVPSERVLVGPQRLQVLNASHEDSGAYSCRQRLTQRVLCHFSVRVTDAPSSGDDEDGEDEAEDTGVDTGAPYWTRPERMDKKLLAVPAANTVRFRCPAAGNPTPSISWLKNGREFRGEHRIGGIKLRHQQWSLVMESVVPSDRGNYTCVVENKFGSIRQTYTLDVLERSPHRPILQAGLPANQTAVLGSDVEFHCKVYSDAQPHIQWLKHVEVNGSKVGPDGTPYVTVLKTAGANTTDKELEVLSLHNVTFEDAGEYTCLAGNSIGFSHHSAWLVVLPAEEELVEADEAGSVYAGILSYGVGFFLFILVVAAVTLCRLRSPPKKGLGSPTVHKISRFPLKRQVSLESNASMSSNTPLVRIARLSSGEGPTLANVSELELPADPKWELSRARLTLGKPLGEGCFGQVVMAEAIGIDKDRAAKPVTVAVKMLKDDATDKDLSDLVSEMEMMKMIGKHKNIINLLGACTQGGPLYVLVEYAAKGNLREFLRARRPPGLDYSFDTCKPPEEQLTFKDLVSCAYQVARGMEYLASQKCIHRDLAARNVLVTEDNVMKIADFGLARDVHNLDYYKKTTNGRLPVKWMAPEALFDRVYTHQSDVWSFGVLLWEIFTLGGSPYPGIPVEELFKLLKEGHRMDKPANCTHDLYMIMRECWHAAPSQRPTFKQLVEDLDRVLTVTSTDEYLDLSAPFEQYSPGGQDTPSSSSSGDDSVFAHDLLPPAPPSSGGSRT
Sequence of Fibroblast growth factor receptor 2 (Homo sapiens, UniProt P21802, V564M) (P21802 22-821 V564M limits assumed): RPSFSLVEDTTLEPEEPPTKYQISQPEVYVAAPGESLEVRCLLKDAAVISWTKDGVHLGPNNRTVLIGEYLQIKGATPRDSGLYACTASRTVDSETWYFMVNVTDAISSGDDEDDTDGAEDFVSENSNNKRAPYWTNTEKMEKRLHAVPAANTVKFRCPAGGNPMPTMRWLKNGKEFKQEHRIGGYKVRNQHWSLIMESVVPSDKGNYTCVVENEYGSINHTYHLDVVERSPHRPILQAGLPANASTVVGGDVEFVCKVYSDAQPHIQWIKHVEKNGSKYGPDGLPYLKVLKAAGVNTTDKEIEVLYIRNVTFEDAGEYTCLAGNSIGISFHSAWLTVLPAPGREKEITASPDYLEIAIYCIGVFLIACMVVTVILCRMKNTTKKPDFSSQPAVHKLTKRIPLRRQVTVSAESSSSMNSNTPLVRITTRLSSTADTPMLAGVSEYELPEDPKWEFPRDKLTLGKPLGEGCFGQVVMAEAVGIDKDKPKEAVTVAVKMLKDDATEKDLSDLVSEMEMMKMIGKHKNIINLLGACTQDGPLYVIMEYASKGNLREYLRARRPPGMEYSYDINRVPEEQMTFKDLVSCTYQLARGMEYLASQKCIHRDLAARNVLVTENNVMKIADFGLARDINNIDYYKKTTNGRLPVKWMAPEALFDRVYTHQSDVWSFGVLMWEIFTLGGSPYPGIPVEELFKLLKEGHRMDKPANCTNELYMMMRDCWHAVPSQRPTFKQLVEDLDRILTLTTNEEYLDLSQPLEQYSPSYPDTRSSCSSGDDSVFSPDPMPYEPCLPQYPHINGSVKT

`Nc1ncc2c(n1)-c1ccccc1[C@H](c1ccccc1)C2` was tested, and the IC50 [1] was 840 nM and the IC50 [2] was 1230 nM.
For `C=CC(=O)Nc1ccc(CN2C(=O)N(c3cc(OC)cc(OC)c3)Cc3cnc(Nc4ccc(N5CCN(C)CC5)cc4)nc32)cc1`, the IC50 [3] was 93 nM, the EC50 [4] was 1 nM and the IC50 [5] was 58 nM. For the same molecule, the IC50 [6] was 32 nM and the IC50 [7] was 4 nM.
`CCN1CCN(c2ccc(C(=O)Nc3n[nH]c4cc(-c5cccc(OC)c5F)ccc34)cc2)CC1` showed an IC50 (SNU-16) of 40.5 nM.
Work on `Cc1c[nH]c(/C=C2\C(=O)Nc3ccccc32)c1CCC(=O)O` yielded an IC50 [8] of 10000 to 20000 nM and an IC50 [9] of 10000 to 20000 nM.
With `C=CC(=O)Nc1ccc(CN(C(=O)Nc2c(Cl)c(OC)cc(OC)c2Cl)c2cc(Nc3ccc(N4CCN(C)CC4)cc3)ncn2)cc1` the IC50 [3] was 41 nM, the EC50 [4] was 1 nM and the IC50 [5] was 64 nM. It also gave an IC50 [10] of 16.8 nM, an IC50 [6] of 22 nM and an IC50 [7] of less than 1 nM.
In the case of `CCN1CCN(c2ccc(C(=O)Nc3n[nH]c4cc(-c5cccc(OC)c5)ccc34)cc2)CC1`, the IC50 (SNU-16) is reported as 642 nM.
For `C=CC(N)=O` [ACRYLAMIDE], the IC50 [11] was 938 nM.
With `O=CN1CCN(c2ccc(/C=C3\C(=O)Nc4ccccc43)cc2)CC1` the IC50 [8] was 20000 to 40000 nM and the IC50 [9] was 10000 to 20000 nM.
